{"source": "patent US10761045B2", "about": "“Sensor, sensor system, method of manufacturing sensor, and method of measuring concentration of target substance” (PHC Holdings Corporation, priority 2010, dated 2020)", "key": {"[1]": {"assay": "Stability test (exposure test) of sensor at 30° C., 80% humidity", "settings": "additive in reagent layer; additive conc. 1.0-5.0 mM", "experimental": "Sensors were manufactured in the same manner as described in section [1-5] using the reagent solutions prepared above. The sensors manufactured were exposed to an environment of high temperature and humidity (30° C., 80% relative humidity) for 24 hours. Response current values of the pre- and post-exposed sensors were measured for a series of glucose solutions of known concentrations.\nSensors were manufactured using fresh reagent solutions having the same compositions as described above. The sensors were subjected to an exposure experiment where they were allowed to stand for 24 hours at 30° C. and 80% humidity. Response current values of non-exposed sensors (i.e., sensors stored under the ambient condition (25° C., 5% humidity) for 24 hours) and the exposed sensors were measured for a series of glucose solutions of known concentrations."}, "[2]": {"assay": "Storage stability of reagent solution (response current of sensors made with stored vs fresh reagent solution)", "type": "physicochemical", "settings": "additive in reagent solution C composition (PQSA, FAD-GDH); additive conc. 1.0-5.0 mM", "text": "A sensor having the configuration illustrated in FIG. 1 was manufactured. The detailed procedure will now be described. First, by sputtering palladium, 8 nm-thick conductive layer 3 was deposited on substrate 2 which was 30 mm in length, 7 mm in width and 0.2 mm in thickness and which contained polyethylene terephthalate as its main component. Thereafter, a 0.1 mm-width non-conductive track was formed by laser ablation, to form electrodes 31 to 33. Electrode 31 was designed to function as a working electrode, electrode 32 as a counter electrode, and electrode 33 as a sensing electrode.\nUsing a microsyringe, 1.2 μL of each reagent solution was applied to form reagent layer 4 in a shape of 2.2 mm diameter-circular. After formation of reagent layer 4, spacer 5 (0.145 mm thick) having a cut-out with a length of 3.4 mm a width of 1.2 mm and cover 6 were sequentially attached to the substrate having the electrodes formed thereon. In this way a sensor was manufactured that has a capillary having a volume of 0.6 μL. […]\nResponse current values of each sensor were measured using a series of glucose solutions of known concentrations.\nBy adding as an additive imidazole, histamine, histidine, 2-aminoimidazole, 4,5-bis(hydroxymethyl)imidazole, 1,2,4-triazole, 3-amino-1,2,4-triazole, 4-amino-1,2,4-triazole, 3,5-diamino-1,2,4-triazole, 2-methylimidazole, or 1,2-dimethylimidazole, reagent solutions were prepared that contain the same composition as reagent solution C except the type and concentration of the additive. The concentrations of the additives are as indicated in Tables below and the accompanying drawings.\nFurther, sensors were manufactured using the same reagent solutions stored at 25° C. and 5% humidity for 24 hours after preparation. […]"}, "[3]": {"assay": "Cyclic voltammetry of reagent solutions A and B (PQSA, FAD-GDH, with or without imidazole)", "type": "physicochemical", "protocol": "Reagent solutions A and B having the following compositions were prepared.\nAdditive: Imidazole (structural formula is illustrated below) (7.5 mM)\nElectron acceptor: PQSA (7.5 mM)\nEnzyme: FAD dependent-glucose dehydrogenase (FAD-GDH) 3.5 MU/L (liter)\nBuffer solution: 100 mM sodium phosphate buffer solution (pH 7.0)\nReagent solution B has the same composition as reagent solution A except the absence of imidazole.\nFirst, by sputtering palladium, 8 nm-thick conductive layer 3 was deposited on substrate 2 which was 30 mm in length, 7 mm in width and 0.2 mm in thickness and which contained polyethylene terephthalate as its main component. Thereafter, a 0.1 mm-width non-conductive track was formed by laser ablation, to form electrodes 31 to 33. Electrode 31 corresponds to a working electrode, and electrode 32 to a counter electrode. Spacer 5 (0.145 mm thick) having a cut-out with a length of 3.4 mm and a width of 1.2 mm and cover 6 were sequentially attached to the substrate having the electrodes formed thereon. In this way a sensor electrode was manufactured that has capillary 51 with a volume of 0.6 μL.\nCyclic voltammetry was performed for the resultant reagent solution using the aforementioned sensor electrode. As a reference electrode, a silver/silver chloride (saturated potassium chloride) electrode (hereinafter “Ag|AgCl”) was used. […]"}}, "data": [{"substance": "Imidazole", "values": [{"measurement": "Sensor stability % change in response current value between before and after 24 hours exposure at 30° C. and 80% humidity", "setting": "[1]", "result": "−50", "unit": "%"}, {"measurement": "Reagent solution stability % change in response current value between before and after 24 hours storage at 25° C.", "setting": "[2]", "result": "−1", "unit": "%"}, {"measurement": "shift of the peak oxidation potential of PQSA after storage of reagent solution", "setting": "[3]; 21 hours at 25° C. and 5% relative humidity, FIG. 4", "result": "positive shift of the peak oxidation potential was limited"}, {"measurement": "shift of the peak potential of PQSA on addition of additive", "setting": "[3]; imidazole 7.5 mM, PQSA 7.5 mM, FAD-GDH, pH 7.0, FIG. 4 vs FIG. 5", "result": "negative shift"}]}]}
